Each compound was assayed against c-Myc template DNA (c-myc quadruplex) (assay: Quadruplex binding / stop assay (Taq polymerase arrest, capillary electrophoresis)). Settings: read-out: S DATA; Table 1D, stop assay data.
Text: A high throughput polymerase arrest assay has been developed. The assay comprises contacting a template nucleic acid, often DNA, with a primer, which also is often DNA; contacting the primer/template complex with a compound described herein (also referred to as a “test compound”); contacting the primer/template complex with a polymerase; and separating reaction products. The assay often includes the step of denaturing the primer/template complex mixture and then renaturing the complex, which often is carried out before a test molecule is added to the system. Multiple assays often are carried out using varying concentrations of a test compound, such that an IC50 value can be obtained, for example. The reaction products often include extended primers of different lengths.
Thus, the reaction mixture often includes at least two reaction products when a test compound interacts with a quadruplex structure in the template, one having a completely extended primer and one having an incompletely extended primer, and these two reaction products are separated. The products may be separated using any convenient separation method, such as mass spectrometry and in one embodiment, capillary electrophoresis.
In an embodiment, a primer oligonucleotide covalently linked to a fluorescent label is contacted with template DNA. The resulting complex is contacted with a test molecule and then contacted with a polymerase capable of extending the primer. The reaction products then are separated and detected by capillary electrophoresis. A longer primer sequence was used for practicing this embodiment as compared to embodiments where the primer includes no covalently-linked fluorophore or where capillary electrophoresis is not utilized for separation. Deoxynucleotides are added at any stage of the assay before the separation, often when the primer is contacted with the template DNA. The template DNA/primer complex often is denatured (e.g., by increasing the temperature of the system) and then renatured (e.g., by cooling the system) before a test compound is added).
The mixture was denatured at 95° C. for 5 minutes and, after cooling down to room temperature, was incubated at 37° C. for 15 minutes.
After cooling down to room temperature, 1 mM KCl and the test compound (various concentrations) were added and the mixture incubated for 15 minutes at room temperature. The primer extension was performed by adding 10 mM KCl and Taq DNA Polymerase (2.5 U/reaction, Promega) and incubating at 70° C. for 30 minutes. The reaction was stopped by adding 1 μl of the reaction mixture to 10 μl Hi-Di Formamide mixed and 0.25 μl LIZ120 size standard. Hi-Di Formamide and LIZ120 size standard were purchased from Applied Biosystems.
The partially extended quadruplex arrest product was between 61 or 62 bases long and the full-length extended product was 99 bases long. The products were separated and analyzed using capillary electrophoresis. Capillary electrophoresis was performed using an ABI PRISM 3100-Avant Genetic Analyzer.
Stop Assays. […] A fluorescently labeled primer DNA is then annealed to the 3′ end of the template DNA. A DNA polymerase such as Taq polymerase is then introduced to synthesize a complementary strand of DNA by extending from the fluorescently labeled primer. When the progress of the Taq polymerase is unhindered, it synthesizes a full-length copy of the template.
These products are visualized by capillary electrophoresis.
With `CN(C)CCCCNC(=O)c1cn2c3c(c(NCCN4CCOCC4)ccc3c1=O)Oc1cc3ccccc3cc1-2` [compound 1550] the IC50 was > 15 µM. `O=C(NCCN1CCOCC1)c1cn2c3c(c(NCCN4CCOCC4)ccc3c1=O)Oc1cc3ccccc3cc1-2` [compound 1551] was tested, and the IC50 was > 15 µM. With `CN1CCN(CCCNc2ccc3c(=O)c(C(=O)NCCN4CCCC4)cn4c3c2Oc2cc3ccccc3cc2-4)CC1` [compound 1552] the IC50 was 0.75 µM. `CN1CCN(CCCNc2ccc3c(=O)c(C(=O)NCCC4CCCN4C)cn4c3c2Oc2cc3ccccc3cc2-4)CC1` (stereo not shown) [compound 1553] showed an IC50 of 0.75 µM. Work on `CN1CCN(CCCNc2ccc3c(=O)c(C(=O)NCCCN4CCOCC4)cn4c3c2Oc2cc3ccccc3cc2-4)CC1` [compound 1554] yielded an IC50 of 1.75 µM. In the case of `CN(C)CCCCNC(=O)c1cn2c3c(c(NCCCN4CCN(C)CC4)ccc3c1=O)Oc1cc3ccccc3cc1-2` [compound 1555], the IC50 is reported as 0.75 µM. `CN1CCN(CCCNc2ccc3c(=O)c(C(=O)NCCN4CCOCC4)cn4c3c2Oc2cc3ccccc3cc2-4)CC1` [compound 1556] gave an IC50 of 1.75 µM. In the case of `O=C(NCCCN1CCOCC1)c1cn2c3c(c(NCCCN4CCOCC4)c(F)cc3c1=O)Oc1ccccc1-2` [compound 1560], the IC50 is reported as > 15 µM. In the case of `CC(C)N1CCN(c2c(F)cc3c(=O)c(C(=O)NCCCN4CCOCC4)cn4c3c2Oc2ccccc2-4)CC1` [compound 1561], the IC50 is reported as > 15 µM. In the case of `CC(C)N1CCN(c2c(F)cc3c(=O)c(C(=O)NCCN4CCOCC4)cn4c3c2Oc2ccccc2-4)CC1` [compound 1562], the IC50 is reported as > 15 µM. `CC(C)N1CCN(c2c(F)cc3c(=O)c(C(=O)NCCCN4CCN(C)CC4)cn4c3c2Oc2ccccc2-4)CC1` [compound 1563] was tested, and the IC50 was > 15 µM. With `CC(C)N1CCN(c2c(F)cc3c(=O)c(C(=O)N4CCC(NC(=O)OC(C)(C)C)C4)cn4c3c2Oc2ccccc2-4)CC1` (stereo not shown) [compound 1564] the IC50 was > 15 µM. `CC(C)N1CCN(c2c(F)cc3c(=O)c(C(=O)NCCC4CCCN4C)cn4c3c2Oc2ccccc2-4)CC1` (stereo not shown) [compound 1565] was tested, and the IC50 was > 15 µM. With `CC(C)N1CCN(c2c(F)cc3c(=O)c(C(=O)NCCN4CCCC4)cn4c3c2Oc2ccccc2-4)CC1` [compound 1566] the IC50 was > 15 µM. `CC(C)N1CCN(c2c(F)cc3c(=O)c(C(=O)NCCCCN(C)C)cn4c3c2Oc2ccccc2-4)CC1` [compound 1567] was tested, and the IC50 was > 15 µM. With `CC(C)N1CCN(c2c(F)cc3c(=O)c(C(=O)NCC(C)(C)CN(C)C)cn4c3c2Oc2ccccc2-4)CC1` [compound 1568] the IC50 was > 15 µM. With `CC(C)N1CCN(c2c(F)cc3c(=O)c(C(=O)N4CCC(N5CCCC5)CC4)cn4c3c2Oc2ccccc2-4)CC1` [compound 1569] the IC50 was > 15 µM. For `CC(C)N1CCN(c2c(F)cc3c(=O)c(C(=O)N4CCN(C)CC4)cn4c3c2Oc2ccccc2-4)CC1` [compound 1570], the IC50 was > 15 µM. `CC(C)N1CCN(c2c(F)cc3c(=O)c(C(=O)NC4CC(C)(C)NC(C)(C)C4)cn4c3c2Oc2ccccc2-4)CC1` [compound 1571] was tested, and the IC50 was > 15 µM. `CN1CCN(CCCNc2c(F)cc3c(=O)c(C(=O)NCCCN4CCOCC4)cn4c3c2Oc2ccccc2-4)CC1` [compound 1572] was tested, and the IC50 was > 15 µM. With `CN1CCN(CCCNc2c(F)cc3c(=O)c(C(=O)NCCN4CCOCC4)cn4c3c2Oc2ccccc2-4)CC1` [compound 1573] the IC50 was > 15 µM. With `CN1CCN(CCCNc2c(F)cc3c(=O)c(C(=O)N4CCC(NC(=O)OC(C)(C)C)C4)cn4c3c2Oc2ccccc2-4)CC1` (stereo not shown) [compound 1574] the IC50 was > 15 µM. In the case of `CN1CCN(CCCNc2c(F)cc3c(=O)c(C(=O)N4CCC(NC(=O)OC(C)(C)C)C4)cn4c3c2Oc2ccccc2-4)CC1` (stereo not shown) [compound 1575], the IC50 is reported as > 15 µM. In the case of `CN1CCN(CCCNc2c(F)cc3c(=O)c(C(=O)NCCC4CCCN4C)cn4c3c2Oc2ccccc2-4)CC1` (stereo not shown) [compound 1576], the IC50 is reported as > 15 µM. In the case of `CN1CCN(CCCNc2c(F)cc3c(=O)c(C(=O)NCCN4CCCC4)cn4c3c2Oc2ccccc2-4)CC1` [compound 1577], the IC50 is reported as > 15 µM. `CN(C)CCCCNC(=O)c1cn2c3c(c(NCCCN4CCN(C)CC4)c(F)cc3c1=O)Oc1ccccc1-2` [compound 1578] was tested, and the IC50 was > 15 µM. `CN1CCN(CCCNc2c(F)cc3c(=O)c(C(=O)NCCCCN)cn4c3c2Oc2ccccc2-4)CC1` [compound 1579] was tested, and the IC50 was > 15 µM. With `CN(C)CC(C)(C)CNC(=O)c1cn2c3c(c(NCCCN4CCN(C)CC4)c(F)cc3c1=O)Oc1ccccc1-2` [compound 1580] the IC50 was > 15 µM. In the case of `CN1CCN(CCCNc2c(F)cc3c(=O)c(C(=O)N4CCC(N5CCCC5)CC4)cn4c3c2Oc2ccccc2-4)CC1` [compound 1581], the IC50 is reported as > 15 µM. `CN1CCN(CCCNc2c(F)cc3c(=O)c(C(=O)N4CCN(C)CC4)cn4c3c2Oc2ccccc2-4)CC1` [compound 1582] was tested, and the IC50 was > 15 µM. For `CC(C)(C)OC(=O)NC1CCN(c2c(F)cc3c(=O)c(C(=O)NCCCN4CCOCC4)cn4c3c2Oc2ccccc2-4)C1` (stereo not shown) [compound 1583], the IC50 was > 15 µM. `CC(C)(C)OC(=O)NC1CCN(c2c(F)cc3c(=O)c(C(=O)NCCN4CCOCC4)cn4c3c2Oc2ccccc2-4)C1` (stereo not shown) [compound 1584] was tested, and the IC50 was > 15 µM. For `CN1CCN(CCCNC(=O)c2cn3c4c(c(N5CCC(NC(=O)OC(C)(C)C)C5)c(F)cc4c2=O)Oc2ccccc2-3)CC1` (stereo not shown) [compound 1585], the IC50 was > 15 µM. In the case of `CC(C)(C)OC(=O)NC1CCN(C(=O)c2cn3c4c(c(N5CCC(NC(=O)OC(C)(C)C)C5)c(F)cc4c2=O)Oc2ccccc2-3)C1` (stereo not shown) [compound 1586], the IC50 is reported as > 15 µM. `CN1CCCC1CCNC(=O)c1cn2c3c(c(N4CCC(NC(=O)OC(C)(C)C)C4)c(F)cc3c1=O)Oc1ccccc1-2` (stereo not shown) [compound 1587] was tested, and the IC50 was > 15 µM. In the case of `CN(C)CCCCNC(=O)c1cn2c3c(c(N4CCC(NC(=O)OC(C)(C)C)C4)c(F)cc3c1=O)Oc1ccccc1-2` (stereo not shown) [compound 1588], the IC50 is reported as > 15 µM. For `CC(C)(C)OC(=O)NC1CCN(c2c(F)cc3c(=O)c(C(=O)NCCCCN)cn4c3c2Oc2ccccc2-4)C1` (stereo not shown) [compound 1589], the IC50 was > 15 µM. In the case of `CN(C)CC(C)(C)CNC(=O)c1cn2c3c(c(N4CCC(NC(=O)OC(C)(C)C)C4)c(F)cc3c1=O)Oc1ccccc1-2` (stereo not shown) [compound 1590], the IC50 is reported as > 15 µM. For `CC1(C)CC(NC(=O)c2cn3c4c(c(N5CCC(NC(=O)OC(C)(C)C)C5)c(F)cc4c2=O)Oc2ccccc2-3)CC(C)(C)N1` (stereo not shown) [compound 1591], the IC50 was > 15 µM. `O=C(NCCCN1CCOCC1)c1cn2c3c(c(NCCN4CCCC4)c(F)cc3c1=O)Oc1ccccc1-2` [compound 1592] was tested, and the IC50 was > 15 µM. With `O=C(NCCN1CCOCC1)c1cn2c3c(c(NCCN4CCCC4)c(F)cc3c1=O)Oc1ccccc1-2` [compound 1593] the IC50 was > 15 µM. With `CN1CCN(CCCNC(=O)c2cn3c4c(c(NCCN5CCCC5)c(F)cc4c2=O)Oc2ccccc2-3)CC1` [compound 1594] the IC50 was > 15 µM. With `CC(C)(C)OC(=O)NC1CCN(C(=O)c2cn3c4c(c(NCCN5CCCC5)c(F)cc4c2=O)Oc2ccccc2-3)C1` (stereo not shown) [compound 1595] the IC50 was > 15 µM. In the case of `CN1CCCC1CCNC(=O)c1cn2c3c(c(NCCN4CCCC4)c(F)cc3c1=O)Oc1ccccc1-2` (stereo not shown) [compound 1596], the IC50 is reported as > 15 µM. `O=C(NCCN1CCCC1)c1cn2c3c(c(NCCN4CCCC4)c(F)cc3c1=O)Oc1ccccc1-2` [compound 1597] was tested, and the IC50 was > 15 µM. With `CN(C)CCCCNC(=O)c1cn2c3c(c(NCCN4CCCC4)c(F)cc3c1=O)Oc1ccccc1-2` [compound 1598] the IC50 was > 15 µM. For `NCCCCNC(=O)c1cn2c3c(c(NCCN4CCCC4)c(F)cc3c1=O)Oc1ccccc1-2` [compound 1599], the IC50 was > 15 µM. With `CN(C)CC(C)(C)CNC(=O)c1cn2c3c(c(NCCN4CCCC4)c(F)cc3c1=O)Oc1ccccc1-2` [compound 1600] the IC50 was > 15 µM. `O=C(c1cn2c3c(c(NCCN4CCCC4)c(F)cc3c1=O)Oc1ccccc1-2)N1CCC(N2CCCC2)CC1` [compound 1601] was tested, and the IC50 was > 15 µM. `CN1CCN(C(=O)c2cn3c4c(c(NCCN5CCCC5)c(F)cc4c2=O)Oc2ccccc2-3)CC1` [compound 1602] was tested, and the IC50 was > 15 µM. With `CC1(C)CC(NC(=O)c2cn3c4c(c(NCCN5CCCC5)c(F)cc4c2=O)Oc2ccccc2-3)CC(C)(C)N1` [compound 1603] the IC50 was > 15 µM. `O=C(NCCCN1CCOCC1)c1cn2c3c(c(NCCN4CCOCC4)c(F)cc3c1=O)Oc1ccccc1-2` [compound 1604] was tested, and the IC50 was > 15 µM. `O=C(NCCN1CCOCC1)c1cn2c3c(c(NCCN4CCOCC4)c(F)cc3c1=O)Oc1ccccc1-2` [compound 1605] was tested, and the IC50 was > 15 µM. With `CN1CCN(CCCNC(=O)c2cn3c4c(c(NCCN5CCOCC5)c(F)cc4c2=O)Oc2ccccc2-3)CC1` [compound 1606] the IC50 was > 15 µM. For `CC(C)(C)OC(=O)NC1CCN(C(=O)c2cn3c4c(c(NCCN5CCOCC5)c(F)cc4c2=O)Oc2ccccc2-3)C1` (stereo not shown) [compound 1607], the IC50 was > 15 µM. In the case of `CN1CCCC1CCNC(=O)c1cn2c3c(c(NCCN4CCOCC4)c(F)cc3c1=O)Oc1ccccc1-2` (stereo not shown) [compound 1608], the IC50 is reported as > 15 µM. For `O=C(NCCN1CCCC1)c1cn2c3c(c(NCCN4CCOCC4)c(F)cc3c1=O)Oc1ccccc1-2` [compound 1609], the IC50 was > 15 µM. With `CN(C)CCCCNC(=O)c1cn2c3c(c(NCCN4CCOCC4)c(F)cc3c1=O)Oc1ccccc1-2` [compound 1610] the IC50 was > 15 µM. With `NCCCCNC(=O)c1cn2c3c(c(NCCN4CCOCC4)c(F)cc3c1=O)Oc1ccccc1-2` [compound 1611] the IC50 was > 15 µM. With `CN(C)CC(C)(C)CNC(=O)c1cn2c3c(c(NCCN4CCOCC4)c(F)cc3c1=O)Oc1ccccc1-2` [compound 1612] the IC50 was > 15 µM. With `O=C(c1cn2c3c(c(NCCN4CCOCC4)c(F)cc3c1=O)Oc1ccccc1-2)N1CCC(N2CCCC2)CC1` [compound 1613] the IC50 was > 15 µM. In the case of `CN1CCN(C(=O)c2cn3c4c(c(NCCN5CCOCC5)c(F)cc4c2=O)Oc2ccccc2-3)CC1` [compound 1614], the IC50 is reported as > 15 µM. `CC1(C)CC(NC(=O)c2cn3c4c(c(NCCN5CCOCC5)c(F)cc4c2=O)Oc2ccccc2-3)CC(C)(C)N1` [compound 1615] was tested, and the IC50 was > 15 µM. `CN1CCCC1CCNC(=O)c1cn2c3c(c(N4CCC(N)CC4)c(F)cc3c1=O)Oc1cc3ccccc3cc1-2` (stereo not shown) [compound 1616] gave an IC50 of 1.75 µM. With `CN1CCCC1CCNC(=O)c1cn2c3c(c(NCC4CCNC4)c(F)cc3c1=O)Oc1cc3ccccc3cc1-2` (stereo not shown) [compound 1617] the IC50 was 0.375 µM. `CN1CCCC1CCNC(=O)c1cn2c3c(c(N4C[C@@H](N)[C@H](c5ccccc5)C4)c(F)cc3c1=O)Oc1cc3ccccc3cc1-2` (stereo partly shown) [compound 1618] showed an IC50 of 0.75 µM. `NC1CCN(c2c(F)cc3c(=O)c(C(=O)NCCCN4CCOCC4)cn4c3c2Oc2ccccc2-4)C1` (stereo not shown) [compound 1619] was tested, and the IC50 was > 15 µM.

Source: patent publication US7507727B2, “Substituted quinobenzoxazine analogs and methods of using thereof” (Cylene Pharmaceuticals, Inc., priority 2003, dated 2009)
